Experimental data as given in ChEMBL document CHEMBL4346705, “(±)-trans-Dihydronarciclasine and (±)-trans-dihydrolycoricidine analogues modified in their ring A: Evaluation of their anticancer activity and a SAR study” (2019).

What was measured:
Format in all cases: functional
COLO 205 = assay: Antiproliferative activity against human COLO205 cells assessed as cell viability at 10^-5 M incubated for 48 hrs by sulforhodamine B assay relative to control; conditions: COLO 205, 48 h, read-out: Activity
HOP-92 = assay: Antiproliferative activity against human HOP92 cells assessed as cell viability at 10^-5 M incubated for 48 hrs by sulforhodamine B assay relative to control; conditions: HOP-92, 48 h, read-out: Activity
NCI-H522 = assay: Antiproliferative activity against human NCI-H522 cells assessed as cell viability at 10^-5 M incubated for 48 hrs by sulforhodamine B assay relative to control; conditions: NCI-H522, 48 h, read-out: Activity
OVCAR-3 = assay: Antiproliferative activity against human OVCAR3 cells assessed as cell viability at 10^-5 M incubated for 48 hrs by sulforhodamine B assay relative to control; conditions: OVCAR-3, 48 h, read-out: Activity
DU-145 = assay: Antiproliferative activity against human DU145 cells assessed as cell viability at 10^-5 M incubated for 48 hrs by sulforhodamine B assay relative to control; conditions: DU-145, 48 h, read-out: Activity
SK-OV-3 [1] = assay: Cytotoxicity against human SKOV3 cells assessed as growth inhibition after 48 hrs by sulforhodamine B assay; conditions: SK-OV-3, 48 h; for CC50: read-out: LC50 (the source's name)
A549 = assay: Antiproliferative activity against human A549 cells assessed as cell viability at 10^-5 M incubated for 48 hrs by sulforhodamine B assay relative to control; conditions: A549, 48 h, read-out: Activity
NCI-H23 [2] = assay: Antiproliferative activity against human NCI-H23 cells assessed as cell viability at 10^-5 M incubated for 48 hrs by sulforhodamine B assay relative to control; conditions: NCI-H23, 48 h, read-out: Activity
RPMI-8226 = assay: Antiproliferative activity against human RPMI8226 cells assessed as cell viability at 10^-5 M incubated for 48 hrs by sulforhodamine B assay relative to control; conditions: RPMI-8226, 48 h, read-out: Activity
NCI-H23 [3] = assay: Cytotoxicity against human NCI-H23 cells assessed as growth inhibition after 48 hrs by sulforhodamine B assay; conditions: NCI-H23, 48 h; for CC50: read-out: LC50 (the source's name)
SK-MEL-28 = assay: Antiproliferative activity against human SK-MEL-28 cells assessed as cell viability at 10^-5 M incubated for 48 hrs by sulforhodamine B assay relative to control; conditions: SK-MEL-28, 48 h, read-out: Activity
BT-549 = assay: Antiproliferative activity against human BT549 cells assessed as cell viability at 10^-5 M incubated for 48 hrs by sulforhodamine B assay relative to control; conditions: BT-549, 48 h, read-out: Activity
SK-MEL-2 = assay: Antiproliferative activity against human SK-MEL-2 cells assessed as cell viability at 10^-5 M incubated for 48 hrs by sulforhodamine B assay relative to control; conditions: SK-MEL-2, 48 h, read-out: Activity
SF-539 = assay: Antiproliferative activity against human SF539 cells assessed as cell viability at 10^-5 M incubated for 48 hrs by sulforhodamine B assay relative to control; conditions: SF-539, 48 h, read-out: Activity
EKVX = assay: Antiproliferative activity against human EKVX cells assessed as cell viability at 10^-5 M incubated for 48 hrs by sulforhodamine B assay relative to control; conditions: read-out: Activity
UACC-257 = assay: Antiproliferative activity against human UACC257 cells assessed as cell viability at 10^-5 M incubated for 48 hrs by sulforhodamine B assay relative to control; conditions: UACC-257, 48 h, read-out: Activity
MCF7 = assay: Antiproliferative activity against human MCF7 cells assessed as cell viability at 10^-5 M incubated for 48 hrs by sulforhodamine B assay relative to control; conditions: MCF7, 48 h, read-out: Activity
M14 = assay: Antiproliferative activity against human M14 cells assessed as cell viability at 10^-5 M incubated for 48 hrs by sulforhodamine B assay relative to control; conditions: M14, 48 h, read-out: Activity
SK-OV-3 [4] = assay: Antiproliferative activity against human SKOV3 cells assessed as cell viability at 10^-5 M incubated for 48 hrs by sulforhodamine B assay relative to control; conditions: SK-OV-3, 48 h, read-out: Activity
UO-31 = assay: Antiproliferative activity against human UO31 cells assessed as cell viability at 10^-5 M incubated for 48 hrs by sulforhodamine B assay relative to control; conditions: UO-31, 48 h, read-out: Activity
T47D = assay: Antiproliferative activity against human T47D cells assessed as cell viability at 10^-5 M incubated for 48 hrs by sulforhodamine B assay relative to control; conditions: read-out: Activity
OVCAR-4 = assay: Antiproliferative activity against human OVCAR4 cells assessed as cell viability at 10^-5 M incubated for 48 hrs by sulforhodamine B assay relative to control; conditions: OVCAR-4, 48 h, read-out: Activity
SW-620 = assay: Antiproliferative activity against human SW620 cells assessed as cell viability at 10^-5 M incubated for 48 hrs by sulforhodamine B assay relative to control; conditions: SW-620, 48 h, read-out: Activity
OVCAR-5 = assay: Antiproliferative activity against human OVCAR5 cells assessed as cell viability at 10^-5 M incubated for 48 hrs by sulforhodamine B assay relative to control; conditions: OVCAR-5, 48 h, read-out: Activity
CAKI-1 = assay: Antiproliferative activity against human Caki1 cells assessed as cell viability at 10^-5 M incubated for 48 hrs by sulforhodamine B assay relative to control; conditions: CAKI-1, 48 h, read-out: Activity
MDA-MB-435 = assay: Antiproliferative activity against human MDA-MB-435 cells assessed as cell viability at 10^-5 M incubated for 48 hrs by sulforhodamine B assay relative to control; conditions: MDA-MB-435, 48 h, read-out: Activity
SNB-19 = assay: Cytotoxicity against human SNB19 cells assessed as growth inhibition after 48 hrs by sulforhodamine B assay; conditions: SNB-19, 48 h
SF-295 = assay: Antiproliferative activity against human SF295 cells assessed as cell viability at 10^-5 M incubated for 48 hrs by sulforhodamine B assay relative to control; conditions: SF-295, 48 h, read-out: Activity
NCI-H226 = assay: Antiproliferative activity against human NCI-H226 cells assessed as cell viability at 10^-5 M incubated for 48 hrs by sulforhodamine B assay relative to control; conditions: NCI-H226, 48 h, read-out: Activity
HCC 2998 = assay: Antiproliferative activity against human HCC2998 cells assessed as cell viability at 10^-5 M incubated for 48 hrs by sulforhodamine B assay relative to control; conditions: HCC 2998, 48 h, read-out: Activity
NCI/ADR-RES = assay: Antiproliferative activity against human NCI-ADR-RES cells assessed as cell viability at 10^-5 M incubated for 48 hrs by sulforhodamine B assay relative to control; conditions: read-out: Activity

Structure (SMILES)	viability at 10 µM (COLO 205)	viability at 10 µM (HOP-92)	viability at 10 µM (NCI-H522)	viability at 10 µM (OVCAR-3)	viability at 10 µM (DU-145)	viability at 10 µM (A549)	viability at 10 µM (NCI-H23 [2])	viability at 10 µM (RPMI-8226)	viability at 10 µM (BT-549)	viability at 10 µM (SK-MEL-2)	viability at 10 µM (SF-539)	viability at 10 µM (EKVX)	viability at 10 µM (UACC-257)	viability at 10 µM (MCF7)	viability at 10 µM (M14)	viability at 10 µM (SK-OV-3 [4])	viability at 10 µM (UO-31)	viability at 10 µM (T47D)	viability at 10 µM (OVCAR-4)	viability at 10 µM (SW-620)	also measured
O=C1NC2C(CC(O)C(O)C2O)c2cc3c(c(O)c21)OCCO3 (racemic)	-49%	-20.1%	-36.1%	-13%	-2.39%	-14.3%	-40.9%	-28.1%	-17.5%	-48.7%	-24.1%	-14.3%	-22.2%	-13.3%	-45.8%	-10.9%	-19.7%	-15.8%	-8.78%	4.85%	GI50 (SK-OV-3 [1]): 496 nM; TGI (SK-OV-3 [1]): 4030 nM; CC50 (SK-OV-3 [1]): > 100000 nM; GI50 (NCI-H23 [3]): 214 nM; TGI (NCI-H23 [3]): 870 nM; CC50 (NCI-H23 [3]): > 100000 nM; viability at 10 µM (SK-MEL-28): -16.4%; viability at 10 µM (OVCAR-5): 3%; viability at 10 µM (CAKI-1): 4.9%; viability at 10 µM (MDA-MB-435): 1.45%; GI50 (SNB-19): 155 nM; LC50 (SNB-19): > 100000 nM; TGI (SNB-19): 1030 nM; viability at 10 µM (SF-295): -14.9%; viability at 10 µM (NCI-H226): -11.3%; viability at 10 µM (HCC 2998): -46.2%; viability at 10 µM (NCI/ADR-RES): -0.44%
COc1c2c(cc3c1C(=O)NC1C3CC(O)C(O)C1O)OCCO2 (racemic)	103%	91.6%	93.5%	104%	107%	96.5%	104%	102%	99.5%	100%	106%	98.2%	98.8%	93.9%	105%	98.6%	86.4%	84.9%	105%	104%	viability at 10 µM (SK-MEL-28): 106%; viability at 10 µM (OVCAR-5): 105%; viability at 10 µM (CAKI-1): 94%; viability at 10 µM (MDA-MB-435): 108%; viability at 10 µM (SF-295): 99.6%; viability at 10 µM (NCI-H226): 92.7%; viability at 10 µM (HCC 2998): 106%; viability at 10 µM (NCI/ADR-RES): 113%
CCOc1cc2c(c(O)c1OCC)C(=O)NC1C2CC(O)C(O)C1O (racemic)	110%	78.5%	92.6%	104%	105%	92.8%	102%	102%	100%	109%	102%	99.7%	99.8%	90.9%	100%	98.6%	89.4%	90.4%	103%	112%	viability at 10 µM (SK-MEL-28): 105%; viability at 10 µM (OVCAR-5): 104%; viability at 10 µM (CAKI-1): 95.7%; viability at 10 µM (MDA-MB-435): 109%; viability at 10 µM (SF-295): 98.7%; viability at 10 µM (NCI-H226): 105%; viability at 10 µM (HCC 2998): 101%; viability at 10 µM (NCI/ADR-RES): 107%
CCOc1cc2c(c(OCC)c1OCC)C(=O)NC1C2CC(O)C(O)C1O (racemic)	115%	82.8%	89.2%	104%	113%	95.8%	101%	102%	108%	99.2%	97%	97.3%	101%	95.6%	103%	105%	88.4%	100%	105%	107%	viability at 10 µM (SK-MEL-28): 107%; viability at 10 µM (OVCAR-5): 104%; viability at 10 µM (CAKI-1): 94.2%; viability at 10 µM (MDA-MB-435): 104%; viability at 10 µM (SF-295): 100%; viability at 10 µM (NCI-H226): 96.3%; viability at 10 µM (HCC 2998): 107%; viability at 10 µM (NCI/ADR-RES): 108%
CCOc1c(OC)cc2c(c1O)C(=O)NC1C2CC(O)C(O)C1O (racemic)	115%	85.2%	92.3%	102%	109%	94.7%	107%	103%	99.6%	106%	97.7%	98%	100%	92.1%	105%	98.1%	92.9%	92.8%	107%	107%	viability at 10 µM (SK-MEL-28): 105%; viability at 10 µM (OVCAR-5): 98.7%; viability at 10 µM (CAKI-1): 91.3%; viability at 10 µM (MDA-MB-435): 108%; viability at 10 µM (SF-295): 102%; viability at 10 µM (NCI-H226): 99.8%; viability at 10 µM (HCC 2998): 102%; viability at 10 µM (NCI/ADR-RES): 110%
O=C1NC2C(CC(O)C(O)C2O)c2cc3c(c(O)c21)OCO3 (racemic)	-38.2%	-19%	-32.6%	-10.8%	-19.1%	-8.4%	-14.9%	-24.2%	-12.5%	-63.6%	-29.7%	-26.3%	-21.8%	1.73%	-81.7%	-11.2%	-31%	-8.46%	-23.7%	-0.05%	GI50 (SK-OV-3 [1]): 94.9 nM; TGI (SK-OV-3 [1]): 1040 nM; CC50 (SK-OV-3 [1]): > 100000 nM; GI50 (NCI-H23 [3]): 74.4 nM; TGI (NCI-H23 [3]): 520 nM; CC50 (NCI-H23 [3]): > 100000 nM; viability at 10 µM (OVCAR-5): -13.4%; viability at 10 µM (CAKI-1): -7.77%; viability at 10 µM (MDA-MB-435): -42.2%; GI50 (SNB-19): 46.6 nM; TGI (SNB-19): 690 nM; viability at 10 µM (SF-295): -11.5%; viability at 10 µM (NCI-H226): -38.3%; viability at 10 µM (HCC 2998): -22.8%; viability at 10 µM (NCI/ADR-RES): 1.95%
